Reference: patent publication US10570180B2, “Anti-bacterial agents and their use in therapy” (priority 2015, dated 2020)
Values after ≈ are worked out from the molar mass of the structure shown. Where two headings read alike, the source gives them in different places. Ends that are not written are not given here.

Experiments:
[1] = tested on: Staphylococcus aureus MRSA 1040s; assay: microbe, parasite or virus in culture; assay type: cell-based
Experimental: (§1) ATX-101 was dissolved in Mueller-Hinton broth to 1.25 times of the desired assay concentration. Antibiotics were dissolved in Mueller-Hinton broth and Mueller-Hinton broth with ATX-101 at a concentration of 1.25 times the highest desired assay concentrations. Antibiotics were pharmaceutical grade purchased from Sigma-Aldrich.
(§2) Two-fold serial dilutions of antibiotics were made in Mueller-Hinton with different concentrations of ATX-101, and the solutions were placed in four parallel wells is Nunc 384-well micro plates (30 μl per well in Nunc 242757 microplates). A group of 8 wells with no addition of antibiotics for each ATX-101 concentration was included on each micro plate as a growth reference.
(§3) At the day of analysis, overnight TSB cultures inoculated from freeze stocks (6 ml in 50 ml tube tilted to 45-degrees angle, 200 rpm, 2.5 cm amplitude, 37° C.) were diluted in TSB until the OD800 was 0.10, and further diluted 1:40 in Mueller-Hinton broth. Each well in the 384-well assay plates was inoculated with 7.5 μl of the diluted culture, giving the same dilution of the culture in the assay cultures. The microplates were placed in plastic bags and incubated without shaking at 37° C. The optical density at 600 nm in the microwells was measured after approximately 19 hours of incubation, and the relative growth yield was calculated based on the growth in the reference groups. The MIC value was set to the highest concentration giving less than 30% growth in all 4 parallel wells within the sample groups. The microplates were further incubated for 6 hours, and optical density in the cultures was measured once more for confirmation of the estimated MIC-values.
as §1, with “The APIM peptide was” for “ATX-101 was”, “with APIM” for “with ATX-101”
as §2, with “APIM,” for “ATX-101,”, “in” for “is”, “APIM” for “ATX-101”, “as” for “as a”
as §3, with “inoculated” for “inoculated from”, “OD600” for “OD800”, “culture.” for “culture, giving the same dilution of the culture in the assay cultures.”, “yield in each well” for “yield”
In view of the anti-bacterial effect of ATX-101 on strains of MRSA, the MIC for a variety of APIM variants was determined using Staphylococcus aureus MRSA 1040s. […] A cell penetrating peptide (SEQ ID NO: 337) present in all of the APIM peptides, was used as a negative control.
Next, the effect of APIM peptides on the MIC of antibiotics was determined using Staphylococcus aureus MRSA 1040s.
(§4) The MICS for various APIM peptides were determined for various bacteria, as described above.

[2] = tested on: E. coli NCIMB 12210; assay: MIC assay of antibiotics with ATX-101; assay type: cell-based, Escherichia coli; details: Escherichia coli, NCIMB12210, E. coli NCIMB 12210, read-out: Est MIC
Experimental: (§5) The minimum inhibitory concentration (MIC) of ATX-101 (SEQ ID NO: 1289) was determined for various gram negative and gram positive bacteria. The bacteria, Pseudomonas aeruginosa ATCC 15692, Acinetobacter baumenni ATCC 19600, Escherichia coli ATCC 25922, Pseudomonas aeruginosa TO-5A (clinical isolate), Enterococous faecium CCUG 37832, Enterococcus faecium CTC 492, Micrococcus luteus ATCC 9341 and Escherichie coli NCIMB 12210 were grown in the presence of various concentrations of ATX-101 and/or antibiotic.
as §1, §2, §3
as §1, with “The APIM peptide was” for “ATX-101 was”, “with APIM” for “with ATX-101”
as §2, with “APIM,” for “ATX-101,”, “in” for “is”, “APIM” for “ATX-101”, “as” for “as a”
as §3, with “inoculated” for “inoculated from”, “OD600” for “OD800”, “culture.” for “culture, giving the same dilution of the culture in the assay cultures.”, “yield in each well” for “yield”

[3] = tested on: E. faecium CTC 492; assay: MIC assay of antibiotics with ATX-101; assay type: cell-based, Enterococcus faecium; details: for MIC: Enterococcus faecium, CTC492, E. faecium CTC 492, read-out: Est MIC
Experimental: as §5, §1, §2, §3
as §1, with “The APIM peptide was” for “ATX-101 was”, “with APIM” for “with ATX-101”
as §2, with “APIM,” for “ATX-101,”, “in” for “is”, “APIM” for “ATX-101”, “as” for “as a”
as §3, with “inoculated” for “inoculated from”, “OD600” for “OD800”, “culture.” for “culture, giving the same dilution of the culture in the assay cultures.”, “yield in each well” for “yield”

[4] = tested on: A. baumanii ATCC 19606; assay: MIC assay of antibiotics with ATX-101; assay type: cell-based; details: for MIC: Acinetobacter baumannii, ATCC19606, A. baumanii ATCC 19606, read-out: Est MIC; for Est MIC: A. baumanii ATCC 19606
Experimental: as §1, with “The APIM peptide was” for “ATX-101 was”, “with APIM” for “with ATX-101”
as §2, with “APIM,” for “ATX-101,”, “in” for “is”, “APIM” for “ATX-101”, “as” for “as a”
as §3, with “inoculated” for “inoculated from”, “OD600” for “OD800”, “culture.” for “culture, giving the same dilution of the culture in the assay cultures.”, “yield in each well” for “yield”

[5] = tested on: E. faecium CCUG 37832 (TO-3); assay type: cell-based, Enterococcus faecium; details: CCUG 37832
Experimental: as §1, §2, §3
Accordingly, concentrations of 8 μg/ml and 16 μg/ml of ATX-101 were combined with various antibiotics selected from; 2,4-Diamin, S. methizol, S. methoxa, S. dimetho, Surfaceta, Trimeth, Flumeq, Levoflox, Pruliflox, Metronid and Nitrofur.
as §4

[6] = tested on: E. faecium TO-12; assay type: cell-based
Experimental: as §1, §2, §3, §4

[7] = tested on: Staphylococcus aureus NCTC 6571; assay type: cell-based; details: NCTC 6571
Experimental: as §1, §2, §3, §4

`CC[C@H]1OC(=O)[C@H](C)[C@@H](O[C@H]2C[C@@](C)(OC)[C@@H](O)[C@H](C)O2)[C@H](C)[C@@H](O[C@@H]2O[C@H](C)C[C@H](N(C)C)[C@H]2O)[C@](C)(O)C[C@@H](C)CN(C)[C@H](C)[C@@H](O)[C@]1(C)O` [Azithromycin, reference compound] was tested, and the MIC ([1]; Staphylococcus aureus, Table 6, alone, MRSA 1040s, read-out: MIC) was > 1030 µg/mL and the “MIC when combined with 10 μg/ml of ATX-101” value ([1]; Table 6, MRSA 1040s) was 8 µg/mL.
Molecule `O=C(N[C@H](CO)[C@H](O)c1ccc([N+](=O)[O-])cc1)C(Cl)Cl` [Chloramphenicol] has an MIC ([2]; APIM (ATX-101) conc. 2 μg/ml) of 2 µg/mL (≈ 6.19 µM), an MIC ([2]; APIM (ATX-101) conc. 4 μg/ml) of 2 µg/mL (≈ 6.19 µM) and an MIC ([2]; APIM (ATX-101) conc. 8 μg/ml) of 1 µg/mL (≈ 3.09 µM). The MIC ([2]; APIM conc. 0 μg/ml) was 2 µg/mL (≈ 6.19 µM), the MIC ([3]; APIM (ATX-101) conc. 6.5 μg/ml) was 2 µg/mL (≈ 6.19 µM) and the MIC ([3]; APIM (ATX-101) conc. 13 μg/ml) was 1 µg/mL (≈ 3.09 µM). The MIC ([3]; APIM conc. 0 μg/ml) was 2 µg/mL (≈ 6.19 µM).
`C[C@@H](O)[C@H]1C(=O)N2C(C(=O)O)=C(SCCN=CN)C[C@H]12` [Imipenem] showed an MIC ([4]; APIM (ATX-101) conc. 2 μg/ml) of 0.125 µg/mL (≈ 0.418 µM), an MIC ([4]; APIM (ATX-101) conc. 4 μg/ml) of 0.125 µg/mL (≈ 0.418 µM) and an MIC ([4]; APIM conc. 0 μg/ml) of 0.25 µg/mL (≈ 0.835 µM). The MIC ([3]; APIM (ATX-101) conc. 6.5 μg/ml) was 2 µg/mL (≈ 6.68 µM), the MIC ([3]; APIM (ATX-101) conc. 13 μg/ml) was 2 µg/mL (≈ 6.68 µM) and the MIC ([3]; APIM conc. 0 μg/ml) was 4 µg/mL (≈ 13.4 µM).
With “MDRFLSKWKKKRKIRRRRRRRRRRR [SEQ ID NO: 1301]” the MIC ([1]; 1040s) was 7.5 µM, the MIC [5] was 7.5 µM and the MIC [6] was 25.3 µM. It also gave an MIC [7] of 37.9 µM.
“MDRFSLKWKKKRKIRRRRRRRRRRR [SEQ ID NO: 1304]” gave an MIC ([1]; 1040s) of 7.5 µM, an MIC [5] of 7.5 µM and an MIC [6] of 25.3 µM. For the same molecule, the MIC [7] was 37.9 µM.
In the case of `CO[C@@H]1[C@@H](OC(N)=O)[C@@H](O)[C@H](Oc2ccc3c(O)c(NC(=O)c4ccc(O)c(CC=C(C)C)c4)c(=O)oc3c2C)OC1(C)C` [Novobiocin], the MIC ([4]; APIM (ATX-101) conc. 2 μg/ml) is reported as 8 µg/mL (≈ 13.1 µM), the MIC ([4]; APIM (ATX-101) conc. 4 μg/ml) is reported as 8 µg/mL (≈ 13.1 µM) and the MIC ([4]; APIM (ATX-101) conc. 8 μg/ml) is reported as 2 µg/mL (≈ 3.26 µM). The MIC ([4]; APIM conc. 0 μg/ml) was 8 µg/mL (≈ 13.1 µM), the MIC ([2]; APIM (ATX-101) conc. 2 μg/ml) was 32 µg/mL (≈ 52.2 µM) and the MIC ([2]; APIM (ATX-101) conc. 4 μg/ml) was 8 µg/mL (≈ 13.1 µM). For the same molecule, the MIC ([2]; APIM (ATX-101) conc. 8 μg/ml) was 4 µg/mL (≈ 6.53 µM) and the MIC ([2]; APIM conc. 0 μg/ml) was 64 µg/mL (≈ 104 µM).
With `CC1(C)S[C@@H]2[C@H](NC(=O)[C@H](N)c3ccccc3)C(=O)N2[C@H]1C(=O)O` [Ampicillin] the MIC ([3]; APIM (ATX-101) conc. 6.5 μg/ml) was 0.5 µg/mL (≈ 1.43 µM), the MIC ([3]; APIM (ATX-101) conc. 13 μg/ml) was 0.5 µg/mL (≈ 1.43 µM) and the MIC ([3]; APIM conc. 0 μg/ml) was 1 µg/mL (≈ 2.86 µM). The “ampicillin concentration sufficient to inhibit bacterial growth” value ([3]; combined with 6.5 μg/ml or 13 μg/ml ATX-101, FIG. 3) was “about 0.5 μg/ml” and the “ampicillin concentration required for the same level of inhibition” value ([3]; without ATX-101, FIG. 3) was 1 µg/mL.
Gentamicin was tested, and the “Est MIC” value ([4]; APIM (ATX-101) conc. 2 μg/ml) was 16 µg/mL, the “Est MIC” value ([4]; APIM (ATX-101) conc. 4 μg/ml) was 8 µg/mL and the “Est MIC” value ([4]; APIM conc. 0 μg/ml) was 16 µg/mL.
